# Results: US20210154188A1, “ALK5 INHIBITORS, CONJUGATES, AND USES THEREOF” (SILVERBACK THERAPEUTICS, INC., priority 2018, published 2021)
# Legend:
# [1] = system: TGFb/SMAD Signaling Pathway SBE reporter cell line; test: TGFb reporter assay (luciferase); format: cell-based; details: 5-6 h preincubation, then TGFb, 18 h, luminescence
# Procedure: TGFb/SMAD Signaling Pathway SBE reporter cell line was obtained from BPS Bioscience. Cells were passed/expanded/stored in liquid nitrogen per supplier's instruction with the exception that growth media was changed to DMEM-C with Geneticin (DMEM supplemented with 10% fetal bovine serum, 1× NEAA, 1 mM Pyruvate, 2 mM glutamine, 50 μg/mL penicillin, 50 U/mL streptomycin and 400 ug/mL of Geneticin). The assay media was MEM supplemented with 0.5% fetal bovine serum, 1× NEAA, 1 mM Pyruvate, 50 μg/mL penicillin and 50 U/mL streptomycin.
# Reporter cells were harvested from the tissue culture flasks by incubation in small quantity of Versene at room temperature for three to five minutes after the media in the flask was removed and cells rinsed with PBS. Cells were counted and diluted in the assay media at ˜0.8×10^6 cells/mL then 50 uL/well were added to 96-well assay plate. Test samples (at desired concentrations diluted in assay media) were added to assay plate containing the 50 uL/well of cells (or media only), 50 uL per well, and incubated for 5-6 hours at 37° C. in a 5% CO2 humidified incubator. After that time, 15 uL of TGFb diluted to 12.5 ng/mL in the assay media was added to the plate. Controls included TGFb titration (from 25 to 0 ng/mL) without inhibitors, and media only (without cells, inhibitor or TGFb). Plates were incubated at 37° C. in a 5% CO2 humidified incubator for 18 h. Luciferase substrate solution was subsequently added at 75 uL per well, incubated in dark with shaking at room temperature for 10 min, and luminescence was measured using a luminometer.
# ALK5 = target: T1, ALK5 (Homo sapiens, UniProt P36897); test: ALK5 enzyme inhibition assay (33P-ATP filter-binding, Reaction Biology Corp); format: biochemical; details: casein substrate 1 mg/mL, 10 uM ATP
# T1 construct: purchased Reaction Biology Corp (Malvern, PA)
# T1 sequence (P36897 34-503): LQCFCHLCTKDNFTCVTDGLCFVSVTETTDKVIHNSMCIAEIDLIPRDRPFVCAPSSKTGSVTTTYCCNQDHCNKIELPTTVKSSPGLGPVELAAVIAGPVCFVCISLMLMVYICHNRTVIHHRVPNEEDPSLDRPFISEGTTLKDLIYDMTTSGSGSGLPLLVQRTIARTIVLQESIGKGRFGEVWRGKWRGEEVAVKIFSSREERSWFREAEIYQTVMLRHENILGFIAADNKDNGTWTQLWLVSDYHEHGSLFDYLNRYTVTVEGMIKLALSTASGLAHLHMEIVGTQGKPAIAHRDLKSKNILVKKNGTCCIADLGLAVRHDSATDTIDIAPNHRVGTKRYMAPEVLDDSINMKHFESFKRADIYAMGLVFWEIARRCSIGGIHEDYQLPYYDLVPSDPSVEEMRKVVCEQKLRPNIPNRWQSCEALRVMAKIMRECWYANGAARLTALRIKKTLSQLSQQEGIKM
# Procedure: ALK5 enzyme inhibition assays were performed by Reaction Biology Corp (Malvern, PA). 1 mg/mL of peptide subtrate (casein) and 10 uM ATP were prepared in a mixture of fresh reaction buffer. The kinase was delivered into the substrate solution which was gently mixed. Compounds in 100% DMSO were added to the kinase reaction mixture by Acoustic technology (Echo550; nanoliter range) and the mixture was incubated for 20 min at room temperature. ^33P-ATP (Specific activity 10 uCi/uL) was added into the reaction mixture to initiate the reaction and the reaction mixture was incubated for 2 hours at room temperature. Radioactivity was detected by filter-binding method and kinase activity data were expressed as the percent remaining kinase activity in test samples compared to vehicle (dimethyl sulfoxide) reactions. IC50 values and curve fits were obtained using Prism (GraphPad Software).
SMILES,IC50 [1] [nM],IC50 (ALK5) [nM]
"Cc1cccc(-c2nc(CNc3cccc4c3CCNC4)[nH]c2-c2ccc3ncnn3c2)n1 [Compound 1.4, N-((5-([1,2,4]triazolo[1,5-a]pyridin-6-yl)-4-(6-methylpyridin-2-yl)-1H-imidazol-2-yl)methyl)-1,2,3,4-tetrahydroisoquinolin-5-amine]",100 to 1000,100 to 1000
"Cc1cccc(-c2nc(CNc3cncc(CN)c3)[nH]c2-c2ccc3ncnn3c2)n1 [Compound 1.19, N-((5-([1,2,4]triazolo[1,5-a]pyridin-6-yl)-4-(6-methylpyridin-2-yl)-1H-imidazol-2-yl)methyl)-5-(aminomethyl)pyridin-3-amine]",100 to 1000,1000 to 10000
"Cc1cccc(-c2nc(CNc3ccc4c(c3)CCC4N)[nH]c2-c2ccc3ncnn3c2)n1 (stereo not shown) [Compound 1.5, N^5-((5-([1,2,4]triazolo[1,5-a]pyridin-6-yl)-4-(6-methylpyridin-2-yl)-1H-imidazol-2-yl)methyl)-2,3-dihydro-1H-indene-1,5-diamine]",100 to 1000,
"Cc1cccc(-c2nc(CNCC3CC3)[nH]c2-c2ccc3ncnn3c2)n1 [Compound 1.8, 1-(5-([1,2,4]triazolo[1,5-a]pyridin-6-yl)-4-(6-methylpyridin-2-yl)-1H-imidazol-2-yl)-N-(cyclopropyl-methyl)methanamine]",100 to 1000,1000 to 10000
"Cc1cccc(-c2nc(C3CCN(C(=O)OC(C)(C)C)C3)[nH]c2-c2ccc3ncnn3c2)n1 (stereo not shown) [Compound 1.51, tert-butyl 3-(5-([1,2,4]triazolo[1,5-a]pyridin-6-yl)-4-(6-methylpyridin-2-yl)-1H-imidazol-2-yl)pyrrolidine-1-carboxylate]",100 to 1000,
"Cc1cccc(-c2nc(C3CN(C(=O)OC(C)(C)C)C3)[nH]c2-c2ccc3ncnn3c2)n1 [Compound 1.52, tert-butyl 3-(5-([1,2,4]triazolo[1,5-a]pyridin-6-yl)-4-(6-methylpyridin-2-yl)-1H-imidazol-2-yl)azetidine-1-carboxylate]",100 to 1000,
"Cc1cccc(-c2nc(C3CNC3)[nH]c2-c2ccc3ncnn3c2)n1 [Compound 1.53, 6-(2-(azetidin-3-yl)-4-(6-methylpyridin-2-yl)-1H-imidazol-5-yl)-[1,2,4]triazolo[1,5-a]pyridine]",1000 to 10000,
"Cc1cccc(-c2nc(C3CCCCN3)[nH]c2-c2ccc3ncnn3c2)n1 (stereo not shown) [Compound 1.49, 6-(4-(6-methylpyridin-2-yl)-2-(piperidin-2-yl)-1H-imidazol-5-yl)-[1,2,4]triazolo[1,5-a]pyridine]",100 to 1000,
"Cc1cccc(-c2nc(C34CCC(N)(CC3)CC4)[nH]c2-c2ccc3ncnn3c2)n1 [Compound 1.55, 4-(5-([1,2,4]triazolo[1,5-a]pyridin-6-yl)-4-(6-methylpyridin-2-yl)-1H-imidazol-2-yl)bicyclo[2.2.2]octan-1-amine]",1000 to 10000,
"Cc1cccc(-c2nc(CNC3CCCNC3)[nH]c2-c2ccn3ncnc3c2)n1 (stereo not shown) [Compound 1.38, N-((5-([1,2,4]triazolo[1,5-a]pyridin-7-yl)-4-(6-methylpyridin-2-yl)-1H-imidazol-2-yl)methyl)piperidin-3-amine]",1000 to 10000,
"Cc1cccc(-c2nc(CNc3ccc4c(c3)C(N)CC4)[nH]c2-c2ccc3ncnn3c2)n1 (stereo not shown) [Compound 1.21, N6-((5-([1,2,4]triazolo[1,5-a]pyridin-6-yl)-4-(6-methylpyridin-2-yl)-1H-imidazol-2-yl)methyl)-2,3-dihydro-1H-indene-1,6-diamine]",100 to 1000,
"Cc1cccc(-c2nc(C3CCNC3)[nH]c2-c2ccc3ncnn3c2)n1 (stereo not shown) [Compound 1.50, 6-(4-(6-methylpyridin-2-yl)-2-(pyrrolidin-3-yl)-1H-imidazol-5-yl)-[1,2,4]triazolo[1,5-a]pyridine]",100 to 1000,
"Cc1cccc(-c2nc(CNc3cccc4c3C(N)CC4)[nH]c2-c2ccc3ncnn3c2)n1 (stereo not shown) [Compound 1.20, N7-((5-([1,2,4]triazolo[1,5-a]pyridin-6-yl)-4-(6-methylpyridin-2-yl)-1H-imidazol-2-yl)methyl)-2,3-dihydro-1H-indene-1,7-diamine]",100 to 1000,
"Cc1cccc(-c2nc(CNC3CCNCC3)[nH]c2-c2ccn3ncnc3c2)n1 [Compound 1.39, N-((5-([1,2,4]triazolo[1,5-a]pyridin-7-yl)-4-(6-methylpyridin-2-yl)-1H-imidazol-2-yl)methyl)piperidin-4-amine]",1000 to 10000,
"CC(=O)NC1Cc2cccc(NCc3nc(-c4cccc(C)n4)c(-c4ccc5ncnn5c4)[nH]3)c2C1 (stereo not shown) [Compound 1.23, N-(4-(((5-([1,2,4]triazolo[1,5-a]pyridin-6-yl)-4-(6-methylpyridin-2-yl)-1H-imidazol-2-yl)methyl)amino)-2,3-dihydro-1H-inden-2-yl)acetamide]",100 to 1000,
"Cc1cccc(-c2nc(C3CCCNC3)[nH]c2-c2ccc3ncnn3c2)n1 (stereo not shown) [Compound 1.48, 6-(4-(6-methylpyridin-2-yl)-2-(piperidin-3-yl)-1H-imidazol-5-yl)-[1,2,4]triazolo[1,5-a]pyridine]",100 to 1000,

# The remaining lines, values ahead:
IC50 [1] [nM],IC50 (ALK5) [nM],SMILES
100 to 1000,100 to 1000,"Cc1cccc(-c2nc(CNCc3ccc4c(c3)OCO4)[nH]c2-c2ccc3ncnn3c2)n1 [Compound 1.41, 1-(5-([1,2,4]triazolo[1,5-a]pyridin-6-yl)-4-(6-methylpyridin-2-yl)-1H-imidazol-2-yl)-N-(benzo[d][1,3]dioxol-5-ylmethyl)methanamine]"
10 to 100,,"Cc1cccc(-c2nc(CNC3CCCOC3)[nH]c2-c2ccc3ncnn3c2)n1 (stereo not shown) [Compound 1.15, 1-(5-([1,2,4]triazolo[1,5-a]pyridin-6-yl)-4-(6-methylpyridin-2-yl)-1H-imidazol-2-yl)-N-(3-tetrahydropyranyl)methanamine]"
100 to 1000,,"Cc1cccc(-c2nc(CNc3cccc4c3CCC4N)[nH]c2-c2ccc3ncnn3c2)n1 (stereo not shown) [Compound 1.6, N^4-((5-([1,2,4]triazolo[1,5-a]pyridin-6-yl)-4-(6-methylpyridin-2-yl)-1H-imidazol-2-yl)methyl)-2,3-dihydro-1H-indene-1,4-diamine]"
10 to 100,10 to 100,"Cc1cccc(-c2nc(CNCc3cccc4ccccc34)[nH]c2-c2ccc3ncnn3c2)n1 [Compound 1.57, 1-(5-([1,2,4]triazolo[1,5-a]pyridin-6-yl)-4-(6-methylpyridin-2-yl)-1H-imidazol-2-yl)-N-(naphthalen-1-ylmethyl)methanamine]"
10 to 100,100 to 1000,"Cc1cccc(-c2nc(CN3Cc4ccccc4C3=O)[nH]c2-c2ccc3ncnn3c2)n1 [Compound 1.56, 2-((5-([1,2,4]triazolo[1,5-a]pyridin-6-yl)-4-(6-methylpyridin-2-yl)-1H-imidazol-2-yl)methyl)isoindolin-1-one]"
10 to 100,10 to 100,"Cc1cccc(-c2nc(CN[C@H]3c4ccccc4C[C@H]3O)[nH]c2-c2ccc3ncnn3c2)n1 [Compound 1.43, (1S,2R)-1-(((5-([1,2,4]triazolo[1,5-a]pyridin-6-yl)-4-(6-methylpyridin-2-yl)-1H-imidazol-2-yl)methyl)amino)-2,3-dihydro-1H-inden-2-ol]"
10 to 100,,"Cc1cccc(-c2nc(CNC3CCCCC3C)[nH]c2-c2ccc3ncnn3c2)n1 (stereo not shown) [Compound 1.16, 1-(5-([1,2,4]triazolo[1,5-a]pyridin-6-yl)-4-(6-methylpyridin-2-yl)-1H-imidazol-2-yl)-N-(2-methylcyclohexyl)methanamine]"
10 to 100,,"Cc1cccc(-c2nc(CNC34CC(C3)C4)[nH]c2-c2ccc3ncnn3c2)n1 [Compound 1.9, N-((5-([1,2,4]triazolo[1,5-a]pyridin-6-yl)-4-(6-methylpyridin-2-yl)-1H-imidazol-2-yl)methyl)bicyclo-[1.1.1]pentan-1-amine]"
